# Test: Total chlorine yield upon dissolution
# Assay type: physicochemical
# Excerpt: The partially halogenated hydantoin is preferably monochloro-5,5-dimethyl hydantoin (MCDMH). MCDMH yields about 43% of its weight in total chlorine upon dissolution.
substance,measurement,value
"monochloro-5,5-dimethyl hydantoin [MCDMH]",total chlorine yielded upon dissolution,about 43 % of its weight

# From patent US20040043914A1, “Sustained release antimicrobial composition including a partially halogenated hydantoin and a colorant” (LONZA INC., priority 2002, published 2004)
